Experimental data: the supplement of paper PMC10307832

Key:
Test in all cases: relative viability (nuclei count vs DMSO), 5 days (fraction); higher = more cells survive
HCC-44 = system: HCC-44
In short: (§1)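 Lung cancer cell lines were pin-tool dosed in 1536-well plates on the day after seeding, with either a lone drug or a fixed anchor-drug dose plus five library-drug doses (not always all listed) in √10 steps. Nuclei were counted on 4× images after 5 days. Relative viability is the ratio of treated-well to vehicle-well nuclei counts, with each value a median of duplicate plates.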

PC-14 = system: PC-14
In short: as §1

LC-2-ad = system: LC-2-ad
In short: as §1

LCLC-97TM1 = system: LCLC-97TM1
In short: as §1

NCI-H23 = system: NCI-H23
In short: as §1

LCLC-103H = system: LCLC-103H
In short: as §1

201T = system: 201T
In short: as §1

NCI-H2228 = system: NCI-H2228
In short: as §1

LU99A = system: LU99A
In short: as §1

COR-L23 = system: COR-L23
In short: as §1

NCI-H1650 = system: NCI-H1650
In short: as §1

PC-3 [JPC-3] = system: PC-3 [JPC-3]
In short: as §1

NCI-H596 = system: NCI-H596
In short: as §1

SW 1573 = system: SW 1573
In short: as §1

NCI-H1793 = system: NCI-H1793
In short: as §1

SW 900 = system: SW 900
In short: as §1

NCI-H460 = system: NCI-H460
In short: as §1

H3255 = system: H3255
In short: as §1

LK-2 = system: LK-2
In short: as §1

A-427 = system: A-427
In short: as §1

NCI-H2347 = system: NCI-H2347
In short: as §1

NCI-H727 = system: NCI-H727
In short: as §1

O=c1cc(-c2cccc3c2Sc2ccccc2S3)oc(N2CCOCC2)c1 + Cc1cc(Nc2cc(N3CCN(C)CC3)nc(Sc3ccc(NC(=O)C4CC4)cc3)n2)n[nH]1 [Tozasertib] (partner 0.1 µM) was tested, and the relative viability (HCC-44; first compound 0.08 µM) was 0.888, the relative viability (HCC-44; first compound 0.253 µM) was 1.01 and the relative viability (HCC-44; first compound 2.53 µM) was 0.717. The relative viability (HCC-44; first compound 8 µM) was 0.54, the relative viability (PC-14; first compound 0.08 µM) was 0.594 and the relative viability (PC-14; first compound 0.253 µM) was 0.572. It also gave a relative viability (PC-14; first compound 0.8 µM) of 0.548, a relative viability (PC-14; first compound 8 µM) of 0.554 and a relative viability (LC-2-ad; first compound 0.08 µM) of 0.389. For the same compound, the relative viability (LC-2-ad; first compound 0.253 µM) was 0.405, the relative viability (LC-2-ad; first compound 0.8 µM) was 0.484 and the relative viability (LC-2-ad; first compound 2.53 µM) was 0.411. The relative viability (LC-2-ad; first compound 8 µM) was 0.435, the relative viability (LCLC-97TM1; first compound 0.08 µM) was 0.223 and the relative viability (LCLC-97TM1; first compound 0.253 µM) was 0.22. The relative viability (LCLC-97TM1; first compound 0.8 µM) was 0.205, the relative viability (LCLC-97TM1; first compound 2.53 µM) was 0.228 and the relative viability (LCLC-97TM1; first compound 8 µM) was 0.207. The relative viability (NCI-H23; first compound 0.08 µM) was 0.629, the relative viability (NCI-H23; first compound 0.253 µM) was 0.341 and the relative viability (NCI-H23; first compound 0.8 µM) was 0.357. For the same compound, the relative viability (NCI-H23; first compound 2.53 µM) was 0.296, the relative viability (NCI-H23; first compound 8 µM) was 0.283 and the relative viability (LCLC-103H; first compound 0.08 µM) was 0.285. The relative viability (LCLC-103H; first compound 0.253 µM) was 0.502, the relative viability (LCLC-103H; first compound 0.8 µM) was 0.494 and the relative viability (LCLC-103H; first compound 2.53 µM) was 0.369. The relative viability (LCLC-103H; first compound 8 µM) was 0.473, the relative viability (201T; first compound 0.08 µM) was 0.945 and the relative viability (201T; first compound 0.253 µM) was 0.982. The relative viability (201T; first compound 0.8 µM) was 1.04, the relative viability (201T; first compound 2.53 µM) was 0.923 and the relative viability (201T; first compound 8 µM) was 0.753. The relative viability (NCI-H2228; first compound 0.08 µM) was 0.213, the relative viability (NCI-H2228; first compound 0.253 µM) was 0.186 and the relative viability (NCI-H2228; first compound 0.8 µM) was 0.248. The relative viability (NCI-H2228; first compound 2.53 µM) was 0.163, the relative viability (NCI-H2228; first compound 8 µM) was 0.18 and the relative viability (LU99A; first compound 0.08 µM) was 0.279. It also gave a relative viability (LU99A; first compound 0.253 µM) of 0.252, a relative viability (LU99A; first compound 0.8 µM) of 0.28 and a relative viability (LU99A; first compound 2.53 µM) of 0.285. It also gave a relative viability (LU99A; first compound 8 µM) of 0.296, a relative viability (COR-L23; first compound 0.08 µM) of 0.202 and a relative viability (COR-L23; first compound 0.253 µM) of 0.202. The relative viability (COR-L23; first compound 0.8 µM) was 0.188, the relative viability (COR-L23; first compound 2.53 µM) was 0.148 and the relative viability (COR-L23; first compound 8 µM) was 0.172. It also gave a relative viability (NCI-H1650; first compound 0.08 µM) of 0.471, a relative viability (NCI-H1650; first compound 0.253 µM) of 0.458 and a relative viability (NCI-H1650; first compound 0.8 µM) of 0.392. The relative viability (NCI-H1650; first compound 2.53 µM) was 0.294, the relative viability (NCI-H1650; first compound 8 µM) was 0.326 and the relative viability (PC-3 [JPC-3]; first compound 0.08 µM) was 0.861. The relative viability (PC-3 [JPC-3]; first compound 0.253 µM) was 0.871, the relative viability (PC-3 [JPC-3]; first compound 0.8 µM) was 0.827 and the relative viability (PC-3 [JPC-3]; first compound 2.53 µM) was 0.805. The relative viability (PC-3 [JPC-3]; first compound 8 µM) was 0.714, the relative viability (NCI-H596; first compound 0.08 µM) was 0.758 and the relative viability (NCI-H596; first compound 0.253 µM) was 0.892. For the same compound, the relative viability (NCI-H596; first compound 0.8 µM) was 1.08, the relative viability (NCI-H596; first compound 2.53 µM) was 0.762 and the relative viability (NCI-H596; first compound 8 µM) was 0.997. It also gave a relative viability (SW 1573; first compound 0.08 µM) of 0.175, a relative viability (SW 1573; first compound 0.253 µM) of 0.186 and a relative viability (SW 1573; first compound 0.8 µM) of 0.197. The relative viability (SW 1573; first compound 2.53 µM) was 0.175, the relative viability (SW 1573; first compound 8 µM) was 0.125 and the relative viability (NCI-H1793; first compound 0.08 µM) was 0.362. It also gave a relative viability (NCI-H1793; first compound 0.253 µM) of 0.38, a relative viability (NCI-H1793; first compound 0.8 µM) of 0.325 and a relative viability (NCI-H1793; first compound 2.53 µM) of 0.228. It also gave a relative viability (NCI-H1793; first compound 8 µM) of 0.245, a relative viability (SW 900; first compound 0.08 µM) of 0.754 and a relative viability (SW 900; first compound 0.253 µM) of 0.543. It also gave a relative viability (SW 900; first compound 0.8 µM) of 0.433, a relative viability (SW 900; first compound 2.53 µM) of 0.486 and a relative viability (SW 900; first compound 8 µM) of 0.5. It also gave a relative viability (NCI-H460; first compound 0.08 µM) of 0.453, a relative viability (NCI-H460; first compound 0.253 µM) of 0.364 and a relative viability (NCI-H460; first compound 0.8 µM) of 0.147. The relative viability (NCI-H460; first compound 2.53 µM) was 0.257, the relative viability (NCI-H460; first compound 8 µM) was 0.166 and the relative viability (H3255; first compound 0.08 µM) was 0.441. The relative viability (H3255; first compound 0.253 µM) was 0.604, the relative viability (H3255; first compound 0.8 µM) was 0.759 and the relative viability (H3255; first compound 2.53 µM) was 0.686. The relative viability (H3255; first compound 8 µM) was 0.867, the relative viability (LK-2; first compound 0.08 µM) was 0.184 and the relative viability (LK-2; first compound 0.253 µM) was 0.165. It also gave a relative viability (LK-2; first compound 0.8 µM) of 0.176, a relative viability (LK-2; first compound 2.53 µM) of 0.162 and a relative viability (LK-2; first compound 8 µM) of 0.16. For the same compound, the relative viability (A-427; first compound 0.08 µM) was 0.176, the relative viability (A-427; first compound 0.253 µM) was 0.179 and the relative viability (A-427; first compound 0.8 µM) was 0.196. It also gave a relative viability (A-427; first compound 8 µM) of 0.204, a relative viability (NCI-H2347; first compound 0.08 µM) of 0.668 and a relative viability (NCI-H2347; first compound 0.253 µM) of 0.605. For the same compound, the relative viability (NCI-H2347; first compound 0.8 µM) was 0.351, the relative viability (NCI-H2347; first compound 2.53 µM) was 0.53 and the relative viability (NCI-H2347; first compound 8 µM) was 0.404. The relative viability (NCI-H727; first compound 0.08 µM) was 0.656, the relative viability (NCI-H727; first compound 0.253 µM) was 0.633 and the relative viability (NCI-H727; first compound 0.8 µM) was 0.609. For the same compound, the relative viability (NCI-H727; first compound 2.53 µM) was 0.535 and the relative viability (NCI-H727; first compound 8 µM) was 0.668.
